Experimental data taken from patent US20100317528A1, “HERBICIDE CONTAINING BENZOYLPYRAZOLE COMPOUND” (ISHIHARA SANGYO KAISHA, LTD., priority 2006, published 2010).

Experiments:
Type in all cases: in vivo
[1] = tested on: barnyardgrass (Echinochloa crus-galli L.); assay: Test Example 1: foliar treatment, upland pot test, barnyardgrass; details: 31 g/ha active ingredient, observed 17th to 25th day after application
[2] = tested on: crabgrass (Digitaria sanguinalis L.); assay: Test Example 1: foliar treatment, upland pot test, crabgrass; details: 31 g/ha active ingredient, observed 17th to 25th day after application
[3] = tested on: green foxtail (Setaria viridis L.); assay: Test Example 1: foliar treatment, upland pot test, green foxtail; details: 31 g/ha active ingredient, observed 17th to 25th day after application
[4] = tested on: redroot pigweed (Amaranthus retroflexus L.); assay: Test Example 1: foliar treatment, upland pot test, redroot pigweed; details: 31 g/ha active ingredient, observed 17th to 25th day after application
How it was run: (§1)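 Upland soil pots, sown; foliar spray at pigweed cotyledon–2.0 leaf, velvetleaf 0.1–1.5 leaf, rice 1.0–3.0 leaf, wheat 1.7–3.4 leaf. WP/EC formulations, prescribed a.i. rate, 500 L/ha spray volume + 0.1 vol % spreader. Visual % inhibition, d17–25.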

[5] = tested on: prickly sida (Sida spinosa L.); assay: Test Example 1: foliar treatment, upland pot test, prickly sida; details: 31 g/ha active ingredient, observed 17th to 25th day after application
[6] = tested on: velvetleaf (Abutilon theophrasti MEDIC.); assay: Test Example 1: foliar treatment, upland pot test, velvetleaf; details: 31 g/ha active ingredient, observed 17th to 25th day after application
How it was run: as §1

[7] = tested on: rice (Oryza sativa L.); assay: Test Example 1: foliar treatment, upland pot test, rice; details: 31 g/ha active ingredient, observed 17th to 25th day after application
How it was run: as §1

[8] = tested on: wheat (Triticum spp.); assay: Test Example 1: foliar treatment, upland pot test, wheat; details: 31 g/ha active ingredient, observed 17th to 25th day after application
How it was run: as §1

[9] = tested on: corn (Zea mays L.); assay: Test Example 1: foliar treatment, upland pot test, corn; details: 31 g/ha active ingredient, observed 17th to 25th day after application
[10] = tested on: soybean (Glycine max Merr.); assay: Test Example 1: foliar treatment, upland pot test, soybean; details: 31 g/ha active ingredient, observed 17th to 25th day after application
[11] = tested on: barnyardgrass (Echinochloa crus-galli L.); assay: Test Example 2: soil application on the day after sowing, barnyardgrass; details: 250 g/ha active ingredient, observed 19th to 28th day after application
How it was run: (§2)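 Visual growth inhibition rate (%), judged 19 to 28 days post-treatment against non-treated plants (0) and complete kill (100), is reported. Treatment was a small-sprayer soil application one day after sowing, with the formulated compound diluted in water at 500 liter per hectare.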

[12] = tested on: crabgrass (Digitaria sanquinalis L.); assay: Test Example 2: soil application on the day after sowing, crabgrass; details: 250 g/ha active ingredient, observed 19th to 28th day after application
How it was run: as §2

[13] = tested on: green foxtail (Setaria viridis L.); assay: Test Example 2: soil application on the day after sowing, green foxtail; details: 250 g/ha active ingredient, observed 19th to 28th day after application
How it was run: as §2

[14] = tested on: redroot pigweed (Amaranthus retroflexus L.); assay: Test Example 2: soil application on the day after sowing, redroot pigweed; details: 250 g/ha active ingredient, observed 19th to 28th day after application
How it was run: as §2

[15] = tested on: prickly sida (Sida spinosa L.); assay: Test Example 2: soil application on the day after sowing, prickly sida; details: 250 g/ha active ingredient, observed 19th to 28th day after application
How it was run: as §2

[16] = tested on: velvetleaf (Abutilon theophrasti MEDIC.); assay: Test Example 2: soil application on the day after sowing, velvetleaf; details: 250 g/ha active ingredient, observed 19th to 28th day after application
How it was run: as §2

[17] = tested on: rice (Oryza sativa L.); assay: Test Example 2: soil application on the day after sowing, rice; details: 250 g/ha active ingredient, observed 19th to 28th day after application
How it was run: as §2

[18] = tested on: wheat (Triticum spp.); assay: Test Example 2: soil application on the day after sowing, wheat; details: 250 g/ha active ingredient, observed 19th to 28th day after application
How it was run: as §2

[19] = tested on: corn (Zea mays L.); assay: Test Example 2: soil application on the day after sowing, corn; details: 250 g/ha active ingredient, observed 19th to 28th day after application
How it was run: as §2

[20] = tested on: soybean (Glycine max Merr.); assay: Test Example 2: soil application on the day after sowing, soybean; details: 250 g/ha active ingredient, observed 19th to 28th day after application
How it was run: as §2

[21] = tested on: green foxtail (Setaria viridis L.); assay: Test Example 3: foliar treatment at later leaf stage, green foxtail; details: 4.0 to 4.5 leaf stage, MSO Concentrate 0.5 vol %, 300 L/ha
Excerpt: (§3) Upland field soil was put into a 1/1,000,000 hectare pot, and seeds of various plants were sown. When the respective plants reached predetermined leaf stage ((1) green foxtail (Setaria viridis L.): 4.0 to 4.5 leaf stage, (2) guineagrass (Panicum maximum Jacq.): 3.5 to 4.3 leaf stage, and (3) corn (Zea mays L.): 4.0 to 4.3 leaf stage, wettable powders or emulsifiable concentrates of compounds of the above formula (I), prepared in accordance with a conventional preparation method, were weighed so that the active ingredients became the prescribed amounts, and diluted with water in an amount corresponding to 300 or 500 liter per 1 hectare (containing of an agricultural spreader (MSO concentrate, manufactured by Cognis Corporation or “KUSARINOH”, manufactured by NIHON NOHYAKU CO., LTD.). The spray solutions thus prepared were applied for foliar treatment by a small sprayer.
(§4) On the 18th to 24th day after application, the state of growth of the respective plants was visually observed, and the herbicidal effect was evaluated by a growth inhibition rate (%) of 0 (equivalent to the non-treated area) to 100% (complete kill).

[22] = tested on: guineagrass (Panicum maximum Jacq.); assay: Test Example 3: foliar treatment at later leaf stage, guineagrass; details: 31 g/ha, 3.5 to 4.3 leaf stage, KUSARINOH 0.1 vol %, 500 L/ha
Excerpt: as §3, §4

[23] = tested on: corn (Zea mays L.); assay: Test Example 3: foliar treatment at later leaf stage, corn; details: 120 g/ha, 4.0 to 4.3 leaf stage, MSO Concentrate 0.5 vol %, 300 L/ha
Excerpt: as §3, §4

Compound: CCn1ncc(C(=O)c2ccc(S(C)(=O)=O)c(OCCOC)c2C)c1O [compound 131]
- Growth inhibition rate (%) Barnyardgrass [1]: 100%
- Growth inhibition rate (%) Crabgrass [2]: 100%
- Growth inhibition rate (%) Green foxtail [3]: 100%
- Growth inhibition rate (%) Redroot pigweed [4]: 100%
- Growth inhibition rate (%) Prickly sida [5]: 70%
- Growth inhibition rate (%) Velvetleaf [6]: 100%
- Growth inhibition rate (%) Rice [7]: 70%
- Growth inhibition rate (%) Wheat [8]: 30%
- Growth inhibition rate (%) Corn [9]: 10%
- Growth inhibition rate (%) Soybean [10]: 100%
- Growth inhibition rate (%) Barnyardgrass [11]: 100%
- Growth inhibition rate (%) Crabgrass [12]: 100%
- Growth inhibition rate (%) Green foxtail [13]: 100%
- Growth inhibition rate (%) Redroot pigweed [14]: 100%
- Growth inhibition rate (%) Prickly sida [15]: 30%
- Growth inhibition rate (%) Velvetleaf [16]: 90%
- Growth inhibition rate (%) Rice [17]: 100%
- Growth inhibition rate (%) Wheat [18]: 40%
- Growth inhibition rate (%) Corn [19]: 30%
- Growth inhibition rate (%) Soybean [20]: 40%
- Growth inhibition rate (%) (24th day after application) Green foxtail ([21]; 7 g/ha): 98%
- Growth inhibition rate (%) (24th day after application) Green foxtail ([21]; 15 g/ha): 100%
- Growth inhibition rate (%) (18th day after application) Guineagrass [22]: 93%
- Growth inhibition rate (%) (21st day after application) Corn [23]: 0%
